According to ChEMBL document CHEMBL3885881, “DrugMatrix”:

Species: Rattus norvegicus
Assay: DrugMatrix - Regimen: Daily Repeat
Assay type: toxicity, organism-based, Sprague-Dawley
Set-up: regimen Daily Repeat, gender Male, age 6-8 weeks
Conditions: in vivo, po, route oral GAVAGE, […]; for ABSOLUTE BASOPHIL / ABSOLUTE EOSINOPHIL / ABSOLUTE LYMPHOCYTE / ABSOLUTE MONOCYTE / ABSOLUTE SEGMENTED NEUTROPHIL / BASOPHIL / EOSINOPHIL / ERYTHROCYTE COUNT / HEMATOCRIT / HEMOGLOBIN / LEUKOCYTE COUNT / LYMPHOCYTE / MEAN CORPUSCULAR HEMOGLOBIN / MEAN CORPUSCULAR HEMOGLOBIN CONCENTRATION / MEAN CORPUSCULAR VOLUME / MONOCYTE / NEUTROPHIL / NUCLEATED RED BLOOD CELLS / PLATELET COUNT: tissue Blood; for ALANINE AMINOTRANSFERASE / ALKALINE PHOSPHATASE / ASPARTATE AMINOTRANSFERASE / BLOOD UREA NITROGEN / CARBON DIOXIDE / CHLORIDE / CHOLESTEROL / CREATINE PHOSPHOKINASE / CREATININE / GLUCOSE / LACTATE DEHYDROGENASE / LIPASE / PHOSPHORUS / POTASSIUM / SODIUM / TOTAL BILIRUBIN / TOTAL PROTEIN / URIC ACID: tissue Plasma
[1] = 0 mg/kg, 72 h, dose level Control, time 3 day
[2] = 0 mg/kg, 120 h, dose level Control, time 5 day
[3] = 36 mg/kg, 72 h, dose level Low, time 3 day

c1ccc2c(c1)Nc1ccccc1S2 [PHENOTHIAZINE]
ABSOLUTE BASOPHIL [1]: 0 CELLS/uL
ABSOLUTE EOSINOPHIL [1]: 0 CELLS/uL
ABSOLUTE LYMPHOCYTE [1]: 6275.67 CELLS/uL
ABSOLUTE MONOCYTE [1]: 40.67 CELLS/uL
ABSOLUTE SEGMENTED NEUTROPHIL [1]: 633.67 CELLS/uL
BASOPHIL [1]: 0%
EOSINOPHIL [1]: 0%
ERYTHROCYTE COUNT [1]: 5.2 x10E6/uL
HEMATOCRIT [1]: 32.78%
HEMOGLOBIN [1]: 12.98 G/DL
LEUKOCYTE COUNT [1]: 6.95 x10E3/uL
LYMPHOCYTE [1]: 90.17%
MEAN CORPUSCULAR HEMOGLOBIN [1]: 24.97 pg
MEAN CORPUSCULAR HEMOGLOBIN CONCENTRATION [1]: 39.62 G/DL
MEAN CORPUSCULAR VOLUME [1]: 63.03 fL
MONOCYTE [1]: 0.67%
NEUTROPHIL [1]: 9.17%
NUCLEATED RED BLOOD CELLS [1]: 0 /100WBC
PLATELET COUNT [1]: 1082.83 x10E3/uL
ALANINE AMINOTRANSFERASE [1]: 69.67 u/L
ALKALINE PHOSPHATASE [1]: 430.5 u/L
ASPARTATE AMINOTRANSFERASE [1]: 90.83 u/L
BLOOD UREA NITROGEN [1]: 13 mg/dL
CARBON DIOXIDE [1]: 33 mmol/L
CHLORIDE [1]: 99.17 MEQ/L
CHOLESTEROL [1]: 70.5 mg/dL
CREATINE PHOSPHOKINASE [1]: 253.33 u/L
CREATININE [1]: 0.13 mg/dL
GLUCOSE [1]: 157.17 mg/dL
LACTATE DEHYDROGENASE [1]: 85 u/L
LIPASE [1]: 10 u/L
PHOSPHORUS [1]: 10.2 mg/dL
POTASSIUM [1]: 5.78 MEQ/L
SODIUM [1]: 144.12 MEQ/L
TOTAL BILIRUBIN [1]: 0.2 mg/dL
TOTAL PROTEIN [1]: 5.8 G/DL
URIC ACID [1]: 0.8 mg/dL
ABSOLUTE BASOPHIL [2]: 0 CELLS/uL
ABSOLUTE EOSINOPHIL [2]: 0 CELLS/uL
ABSOLUTE LYMPHOCYTE [2]: 10431 CELLS/uL
ABSOLUTE MONOCYTE [2]: 90.5 CELLS/uL
ABSOLUTE SEGMENTED NEUTROPHIL [2]: 1111.83 CELLS/uL
BASOPHIL [2]: 0%
EOSINOPHIL [2]: 0%
ERYTHROCYTE COUNT [2]: 5.51 x10E6/uL
HEMATOCRIT [2]: 34.67%
HEMOGLOBIN [2]: 13.5 G/DL
LEUKOCYTE COUNT [2]: 11.63 x10E3/uL
LYMPHOCYTE [2]: 89.67%
MEAN CORPUSCULAR HEMOGLOBIN [2]: 24.5 pg
MEAN CORPUSCULAR HEMOGLOBIN CONCENTRATION [2]: 38.95 G/DL
MEAN CORPUSCULAR VOLUME [2]: 62.87 fL
MONOCYTE [2]: 0.67%
NEUTROPHIL [2]: 9.67%
NUCLEATED RED BLOOD CELLS [2]: 0 /100WBC
PLATELET COUNT [2]: 1052.67 x10E3/uL
ALANINE AMINOTRANSFERASE [2]: 54.67 u/L
ALKALINE PHOSPHATASE [2]: 359.83 u/L
ASPARTATE AMINOTRANSFERASE [2]: 83 u/L
BLOOD UREA NITROGEN [2]: 13.5 mg/dL
CARBON DIOXIDE [2]: 27.17 mmol/L
CHLORIDE [2]: 98.5 MEQ/L
CHOLESTEROL [2]: 66.83 mg/dL
CREATINE PHOSPHOKINASE [2]: 256.17 u/L
CREATININE [2]: 0.19 mg/dL
GLUCOSE [2]: 171.33 mg/dL
LACTATE DEHYDROGENASE [2]: 91.5 u/L
LIPASE [2]: 10.5 u/L
PHOSPHORUS [2]: 8.72 mg/dL
POTASSIUM [2]: 5.34 MEQ/L
SODIUM [2]: 142.53 MEQ/L
TOTAL BILIRUBIN [2]: 0.2 mg/dL
TOTAL PROTEIN [2]: 6.05 G/DL
URIC ACID [2]: 0.6 mg/dL
ABSOLUTE BASOPHIL [3]: 0 CELLS/uL
ABSOLUTE EOSINOPHIL [3]: 54.67 CELLS/uL
ABSOLUTE LYMPHOCYTE [3]: 10865.33 CELLS/uL
ABSOLUTE MONOCYTE [3]: 53.67 CELLS/uL
ABSOLUTE SEGMENTED NEUTROPHIL [3]: 926.33 CELLS/uL
BASOPHIL [3]: 0%
EOSINOPHIL [3]: 0.67%
ERYTHROCYTE COUNT [3]: 5.23 x10E6/uL
HEMATOCRIT [3]: 34.4%
HEMOGLOBIN [3]: 13.4 G/DL
LEUKOCYTE COUNT [3]: 11.9 x10E3/uL
LYMPHOCYTE [3]: 91%
MEAN CORPUSCULAR HEMOGLOBIN [3]: 25.6 pg
MEAN CORPUSCULAR HEMOGLOBIN CONCENTRATION [3]: 39 G/DL
MEAN CORPUSCULAR VOLUME [3]: 65.73 fL
MONOCYTE [3]: 0.33%
NEUTROPHIL [3]: 8%
NUCLEATED RED BLOOD CELLS [3]: 0 /100WBC
PLATELET COUNT [3]: 973 x10E3/uL
ALANINE AMINOTRANSFERASE [3]: 62.67 u/L
ALKALINE PHOSPHATASE [3]: 333.33 u/L
ASPARTATE AMINOTRANSFERASE [3]: 94.33 u/L
BLOOD UREA NITROGEN [3]: 11.67 mg/dL
CARBON DIOXIDE [3]: 26.67 mmol/L
CHLORIDE [3]: 98 MEQ/L
CHOLESTEROL [3]: 63.67 mg/dL
CREATINE PHOSPHOKINASE [3]: 272.33 u/L
CREATININE [3]: 0.28 mg/dL
GLUCOSE [3]: 138 mg/dL
LACTATE DEHYDROGENASE [3]: 84 u/L
LIPASE [3]: 10.33 u/L
PHOSPHORUS [3]: 10.03 mg/dL
POTASSIUM [3]: 5.46 MEQ/L
SODIUM [3]: 142.1 MEQ/L
TOTAL BILIRUBIN [3]: 0.17 mg/dL
TOTAL PROTEIN [3]: 5.37 G/DL
URIC ACID [3]: 0.57 mg/dL
